From publication PMC3793924, “Targeting Androgen Receptor/Src Complex Impairs the Aggressive Phenotype of Human Fibrosarcoma Cells” (PLoS ONE, 2013)

Columns and labels:
[1] = test system: HT1080 cell xenografts; assay: HT1080 cell xenografts in nude male mice, tumor mass; type: in vivo; details: i.p. on alternate days for 4 weeks, Casodex 0.1 μg/mice (4 µg/Kg), DHT 0,1 μg/mice (3 μg/Kg), six animals per group
Experimental: Figure 1 Casodex inhibits the EGF-triggered DNA synthesis in human fibrosarcoma HT1080 cells and reduces the growth of HT1080 xenografts. Human fibrosarcoma HT1080 cells were used. In A, quiescent cells on coverslips were left un-stimulated or stimulated for 18 h with the indicated compounds. […] After in vivo pulse with BrdU (100 μM; Sigma), BrdU incorporation was analyzed by IF and expressed as % of total nuclei. Several independent experiments were performed in duplicate and the results were derived from at least 400 scored cells for each coverslip. Mean and SEM are shown. n represents the number of experiments. (**) p value< 0,001. […] In B, xenografts were established in nude male mice as described in Methods. […] Volumes of HT1080 cell xenografts were measured at the indicated times in two dimensions by a caliper and expressed as tumor mass (mm^3). […]
HT1080 cells in 50% (v/v) Matrigel solution in phosphate-buffered saline (PBS; pH 7.4) were subcutaneously injected in the dorsal posterior region at 2.5 x 10^6 cells/male athymic mice (CD mice, Charles-River Italia) without hormone priming. […] The tumor volumes of HT1080 cell xenografts were measured at indicated intervals in two dimensions by a caliper and expressed as tumor mass (mm^3). This is calculated according to the formula: a^2 × b × 0.5, where a is the width and b is the length of the tumor. […]

[2] = Body weight of xenografted mice; type: in vivo; details: Casodex i.p. on alternate days, 4 weeks; weighed twice weekly
Text: HT1080 cells in 50% (v/v) Matrigel solution in phosphate-buffered saline (PBS; pH 7.4) were subcutaneously injected in the dorsal posterior region at 2.5 x 10^6 cells/male athymic mice (CD mice, Charles-River Italia) without hormone priming. Animals were randomly selected for the treatment with Casodex (dissolved in 0.1% ethanol) or DHT (dissolved in 0.1% ethanol) or control vehicle intra-peritoneally for a total of 4 weeks. Each group consisted of six animals. For the treatment of each animal (average weight: 25.08 g), 200 μl of 1 μM Casodex (about 0.1 µg) in 0.1% ethanol or 200 μl of 1 μM DHT (about 3 μg/Kg body weight) or the same amount of vehicle alone were administered to the mice on alternate days. The tumor volumes of HT1080 cell xenografts were measured at indicated intervals in two dimensions by a caliper and expressed as tumor mass (mm^3). This is calculated according to the formula: a^2 × b × 0.5, where a is the width and b is the length of the tumor. Food and water were given ad libitum. […] Animal experimentation was reviewed and approved by the Animal Research Ethical Committee of “Istituto per la Diagnosi e la Cura dei Tumori- Fondazione “G. Pascale” (Naples-ITALY).

[3] = test system: HT1080 cells; details: various cell types, including HT1080 cells (Figure S1); cited from earlier work
Text: Such a crosstalk has been previously analyzed in prostate cancer-derived LNCaP cells. […] The S1 peptide derives from the 377-386 amino-acid sequence of AR that is rich in prolines and is responsible for association of AR with t ...

Row | Compound | Growth of HT1080 xenografts (tumor mass) [1] | Body weight versus control mice [2] | Diffusion across membranes [3]
1 | CC(O)(CS(=O)(=O)c1ccc(F)cc1)C(=O)Nc1ccc(C#N)c(C(F)(F)F)c1 (stereo not drawn) [Casodex] | tumor growth was drastically reduced | no difference in body weight | –
2 | Ac-PPPHPHARIK-NH2 [S1 peptide] | – | – | rapidly diffuses across membranes
